From patent publication US6207656A, “Vitamin D analogues and their neuronal effects” (Cephalon, Inc., priority 1998, dated 2001)

How the values were obtained:
BDNF mRNA = assay: Induction of BDNF mRNA expression in rats; assay type: in vivo, Sprague Dawley rats; conditions: 0.3, 1.0 and 3.0 μg/kg oral, 8 days; hippocampus (FIG. 1)
Protocol: Young adult male Sprague Dawley rats (250-350 g) were administered Compound (A), Compound (E), or a vehicle (80% propylene glycol (human formulation grade; Spectrum Quality Products, Inc., Gardena, Calif., catalog #PR130-55003) and 20% phosphate buffer, pH 9.2) at doses ranging from 0.1 to 5.5 μg/kg daily by oral gavage for eight days. Five hours after the last dose, the animals were sacrificed by decapitation. Each brain was quickly removed and chilled in ice-cold saline. The brain was cut into 2 mm thick coronal sections. Portions of the hippocampus, encompassing the CA1 region, and the medial septum were removed by punching 2 mm^3 sections using a calibrated tissue punch. Punched sections were immediately frozen on dry ice and then stored at -70° C. RNA was prepared from dissected tissue pieces.
Punches of tissue were homogenized in […] RNAzolB™ (Bioteex Laboratories, Houston, Tex.) using a homogenizer (Tekmar, Germany) until fully homogenized and then 250 μl RNAzilB™ was added. Typically, punches from the corresponding regions of brains of 2 to 3 animals were combined together. RNA was prepared as recommended by the manufacturer (Biotecx Laboratories). […] Concentration of RNA was measured spectrophotometrically and the quality of RNA was visualized on a nondenaturing agarose gel. […]

NGF mRNA = assay: Induction of NGF mRNA expression in primates; assay type: in vivo, monkey
Protocol: (§1) Twelve monkeys, ranging in weight from 2.0 Kg to 4.7 Kg, were divided into three groups of 4 animals each: the vehicle group (i.e., control), group dosed with 10 μg/kg/day, and group dosed with 30 μg/kg/clay. The monkeys were dosed orally for 8 days with Compound (A) and were sacrificed 5 hours after the last dosing. Brain regions were dissected and quick frozen. The dissected septi were divided into 3 preparations and two of the three regions of septum were analyzed. Total RNA was prepared and reverse transcribed and gene expression was assessed using polymerase chain reaction by the following procedure.
(§2) Total RNA was prepared by homogenizing sections of tissue in 750 μl RNAzolB™ (Biotecx Laboratories, Houston, Tex.) using a homogenizer (Tekmar, Germany) until fully homogenized and then 250 μl RNAzilB™ was added. RNA was prepared as recommended by the manufacturer (Biotecx Laboratories). […] Concentration of RNA was measured spectrophotometrically and the quality of RNA was visualized on a nondenaturing agarose gel. […]
(§3) An average of 4 PCR assays (two assays for each gene for two cDNA sets) were used in determining the induction of mRNA expression. To assure that PCR assays were within the linear range of the reaction, the linear range for each gene and each cDNA preparation was determined using serial dilutions of cDNAs. […]

GDNF mRNA = assay: Induction of GDNF mRNA expression in primates; assay type: in vivo, monkey
Protocol: as §1, §2, §3

[1] = Serum calcium in primates; assay type: in vivo, monkey; conditions: 10 and 30 μg/kg/day oral, 8 days

SMILES: C=C1/C(=C\C=C2/CCC[C@]3(C)[C@@H]([C@@H](C)[C@@H](C#CCC(O)(CC)CC)OCC)CC[C@@H]23)C[C@@H](O)C[C@@H]1O [Compound (A), 1(S),3(R)-dihydroxy-20(R)-(1-ethoxy-5-ethyl-5-hydroxy-2-heptyn-1-yl)-9,10-seco-pregna-5(Z),7(E),10(19)-triene]
- production of BDNF mRNA (BDNF mRNA): facilitated the production of NRT-like mRNA, GDNF mRNA, NT-3 mRNA, and BDNF mRNA
- production of NGF mRNA (NGF mRNA; 10 and 30 μg/kg/day oral, 8 days, primate septum (FIG. 14A)): facilitated the production of NGF mRNA
- dosage of greatest NGF mRNA production (NGF mRNA; 10 vs 30 μg/kg/day oral): greatest at a dosage of 10 μg/kg/day
- production of GDNF mRNA (GDNF mRNA; 10 and 30 μg/kg/day oral, 8 days, primate septum (FIG. 14B)): facilitated the production of NGF mRNA and GDNF mRNA
- dosage of greatest GDNF mRNA production (GDNF mRNA; 10 vs 30 μg/kg/day oral): greatest at a dosage of 10 μg/kg/day
- serum calcium levels [1]: did not increase serum calcium levels and were not hypercalcemic doses
